Assay results reported in ChEMBL document CHEMBL1201862, “PubChem BioAssay data set” (2004).
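Briefly, cells in 96-well plates were exposed to five compound concentrations for 48 h, and endpoints were estimated by linear interpolation. GI50: concentration for 50% inhibition of growth.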 Active and inactive are the calls of the source. No stated cut-off is given here; in the data, active = GI50 up to about 1.1 µM and inactive = higher.

Key:
Test in all cases: NCI tumour cell line growth inhibition, 48 h
MDA-MB-231 = test system: MDA-MB-231
NCI-H23 = test system: NCI-H23
SK-MEL-5 = test system: SK-MEL-5
T47D = test system: T47D
SF-539 = test system: SF-539
HCT-116 = test system: HCT-116
SR = test system: SR
NCI/ADR-RES = test system: NCI/ADR-RES
UO-31 = test system: UO-31
HOP-92 = test system: HOP-92
EKVX = test system: EKVX
HCC 2998 = test system: HCC 2998
CCRF-CEM = test system: CCRF-CEM
KM12 = test system: KM12
U-251 = test system: U-251
MCF7 = test system: MCF7
NCI-H522 = test system: NCI-H522
786-0 = test system: 786-0
K562 = test system: K562
COLO 205 = test system: COLO 205
Malme-3M = test system: Malme-3M
NCI-H226 = test system: NCI-H226
NCI-H460 = test system: NCI-H460
Hs-578T = test system: Hs-578T
DU-145 = test system: DU-145
TK-10 = test system: TK-10
HCT-15 = test system: HCT-15
HL-60 = test system: HL-60
LOX IMVI = test system: LOX IMVI
MDA-N = test system: MDA-N
M14 = test system: M14
HT-29 = test system: HT-29
RPMI-8226 = test system: RPMI-8226
PC-3 = test system: PC-3
A498 = test system: A498
SK-MEL-28 = test system: SK-MEL-28
BT-549 = test system: BT-549
RXF 393 = test system: RXF 393
OVCAR-4 = test system: OVCAR-4
MDA-MB-435 = test system: MDA-MB-435
SF-295 = test system: SF-295
UACC-62 = test system: UACC-62
OVCAR-5 = test system: OVCAR-5
CAKI-1 = test system: CAKI-1
SN12C = test system: SN12C
IGROV-1 = test system: IGROV-1
HOP-62 = test system: HOP-62
SK-MEL-2 = test system: SK-MEL-2
A549 = test system: A549
SF-268 = test system: SF-268
UACC-257 = test system: UACC-257
OVCAR-8 = test system: OVCAR-8
OVCAR-3 = test system: OVCAR-3
SW-620 = test system: SW-620
ACHN = test system: ACHN
SK-OV-3 = test system: SK-OV-3
SNB-19 = test system: SNB-19
MOLT-4 = test system: MOLT-4
SNB-75 = test system: SNB-75

O=C1c2ccccc2-c2nnc(-c3ccc([N+](=O)[O-])cc3)cc21
GI50 (MDA-MB-231): > 10 µM (inactive) | GI50 (NCI-H23): > 10 µM (inactive) | GI50 (SK-MEL-5): > 10 µM (inactive) | GI50 (T47D): > 10 µM (inactive) | GI50 (SF-539): > 10 µM (inactive) | GI50 (HCT-116): > 10 µM (inactive) | GI50 (SR): > 10 µM (inactive) | GI50 (NCI/ADR-RES): > 10 µM (inactive) | GI50 (UO-31): > 10 µM (inactive) | GI50 (HOP-92): > 10 µM (inactive) | GI50 (EKVX): > 10 µM (inactive) | GI50 (HCC 2998): > 10 µM (inactive) | GI50 (CCRF-CEM): > 10 µM (inactive) | GI50 (KM12): > 10 µM (inactive) | GI50 (U-251): > 10 µM (inactive) | GI50 (MCF7): > 10 µM (inactive) | GI50 (NCI-H522): > 10 µM (inactive) | GI50 (786-0): > 10 µM (inactive) | GI50 (K562): > 10 µM (inactive) | GI50 (COLO 205): > 10 µM (inactive) | GI50 (Malme-3M): > 10 µM (inactive) | GI50 (NCI-H226): > 10 µM (inactive) | GI50 (NCI-H460): > 10 µM (inactive) | GI50 (Hs-578T): > 10 µM (inactive) | GI50 (DU-145): > 10 µM (inactive) | GI50 (TK-10): > 10 µM (inactive) | GI50 (HCT-15): > 10 µM | GI50 (HL-60): > 10 µM (inactive) | GI50 (LOX IMVI): > 10 µM (inactive) | GI50 (MDA-N): > 10 µM (inactive) | GI50 (M14): > 10 µM (inactive) | GI50 (HT-29): > 10 µM (inactive) | GI50 (RPMI-8226): > 10 µM (inactive) | GI50 (PC-3): > 10 µM (inactive) | GI50 (A498): > 10 µM (inactive) | GI50 (SK-MEL-28): > 10 µM (inactive) | GI50 (BT-549): > 10 µM (inactive) | GI50 (RXF 393): > 10 µM (inactive) | GI50 (OVCAR-4): > 10 µM (inactive) | GI50 (MDA-MB-435): > 10 µM (inactive) | GI50 (SF-295): > 10 µM (inactive) | GI50 (UACC-62): > 10 µM (inactive) | GI50 (OVCAR-5): > 10 µM (inactive) | GI50 (CAKI-1): > 10 µM (inactive) | GI50 (SN12C): > 10 µM (inactive) | GI50 (IGROV-1): > 10 µM (inactive) | GI50 (HOP-62): > 10 µM (inactive) | GI50 (SK-MEL-2): > 10 µM (inactive) | GI50 (A549): > 10 µM (inactive) | GI50 (SF-268): > 10 µM (inactive) | GI50 (UACC-257): > 10 µM (inactive) | GI50 (OVCAR-8): > 10 µM (inactive) | GI50 (OVCAR-3): > 10 µM (inactive) | GI50 (SW-620): > 10 µM (inactive) | GI50 (ACHN): > 10 µM (inactive) | GI50 (SK-OV-3): > 10 µM (inactive) | GI50 (SNB-19): > 10 µM (inactive) | GI50 (MOLT-4): > 10 µM (inactive) | GI50 (SNB-75): > 10 µM (inactive)
